Reference: patent US9776995B2, “Bicyclic sulfonamide compounds as sodium channel inhibitors” (AMGEN INC., priority 2013, dated 2017)

What follows are molecules tested against Nav 1.7 (Homo sapiens (Human), UniProt Q15858) (assay: Nav 1.7 in vitro PX assay (PatchXpress whole cell voltage clamp)). Conditions: not given.
Format: cell-based
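Further: holding potential set for 20 to 50% inactivation, sodium current evoked by a 20 ms step to −10 mV, peak current inhibition read after compound exposure, 3–5 cells per concentration.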

Chain of Nav 1.7 (Q15858 whole entry): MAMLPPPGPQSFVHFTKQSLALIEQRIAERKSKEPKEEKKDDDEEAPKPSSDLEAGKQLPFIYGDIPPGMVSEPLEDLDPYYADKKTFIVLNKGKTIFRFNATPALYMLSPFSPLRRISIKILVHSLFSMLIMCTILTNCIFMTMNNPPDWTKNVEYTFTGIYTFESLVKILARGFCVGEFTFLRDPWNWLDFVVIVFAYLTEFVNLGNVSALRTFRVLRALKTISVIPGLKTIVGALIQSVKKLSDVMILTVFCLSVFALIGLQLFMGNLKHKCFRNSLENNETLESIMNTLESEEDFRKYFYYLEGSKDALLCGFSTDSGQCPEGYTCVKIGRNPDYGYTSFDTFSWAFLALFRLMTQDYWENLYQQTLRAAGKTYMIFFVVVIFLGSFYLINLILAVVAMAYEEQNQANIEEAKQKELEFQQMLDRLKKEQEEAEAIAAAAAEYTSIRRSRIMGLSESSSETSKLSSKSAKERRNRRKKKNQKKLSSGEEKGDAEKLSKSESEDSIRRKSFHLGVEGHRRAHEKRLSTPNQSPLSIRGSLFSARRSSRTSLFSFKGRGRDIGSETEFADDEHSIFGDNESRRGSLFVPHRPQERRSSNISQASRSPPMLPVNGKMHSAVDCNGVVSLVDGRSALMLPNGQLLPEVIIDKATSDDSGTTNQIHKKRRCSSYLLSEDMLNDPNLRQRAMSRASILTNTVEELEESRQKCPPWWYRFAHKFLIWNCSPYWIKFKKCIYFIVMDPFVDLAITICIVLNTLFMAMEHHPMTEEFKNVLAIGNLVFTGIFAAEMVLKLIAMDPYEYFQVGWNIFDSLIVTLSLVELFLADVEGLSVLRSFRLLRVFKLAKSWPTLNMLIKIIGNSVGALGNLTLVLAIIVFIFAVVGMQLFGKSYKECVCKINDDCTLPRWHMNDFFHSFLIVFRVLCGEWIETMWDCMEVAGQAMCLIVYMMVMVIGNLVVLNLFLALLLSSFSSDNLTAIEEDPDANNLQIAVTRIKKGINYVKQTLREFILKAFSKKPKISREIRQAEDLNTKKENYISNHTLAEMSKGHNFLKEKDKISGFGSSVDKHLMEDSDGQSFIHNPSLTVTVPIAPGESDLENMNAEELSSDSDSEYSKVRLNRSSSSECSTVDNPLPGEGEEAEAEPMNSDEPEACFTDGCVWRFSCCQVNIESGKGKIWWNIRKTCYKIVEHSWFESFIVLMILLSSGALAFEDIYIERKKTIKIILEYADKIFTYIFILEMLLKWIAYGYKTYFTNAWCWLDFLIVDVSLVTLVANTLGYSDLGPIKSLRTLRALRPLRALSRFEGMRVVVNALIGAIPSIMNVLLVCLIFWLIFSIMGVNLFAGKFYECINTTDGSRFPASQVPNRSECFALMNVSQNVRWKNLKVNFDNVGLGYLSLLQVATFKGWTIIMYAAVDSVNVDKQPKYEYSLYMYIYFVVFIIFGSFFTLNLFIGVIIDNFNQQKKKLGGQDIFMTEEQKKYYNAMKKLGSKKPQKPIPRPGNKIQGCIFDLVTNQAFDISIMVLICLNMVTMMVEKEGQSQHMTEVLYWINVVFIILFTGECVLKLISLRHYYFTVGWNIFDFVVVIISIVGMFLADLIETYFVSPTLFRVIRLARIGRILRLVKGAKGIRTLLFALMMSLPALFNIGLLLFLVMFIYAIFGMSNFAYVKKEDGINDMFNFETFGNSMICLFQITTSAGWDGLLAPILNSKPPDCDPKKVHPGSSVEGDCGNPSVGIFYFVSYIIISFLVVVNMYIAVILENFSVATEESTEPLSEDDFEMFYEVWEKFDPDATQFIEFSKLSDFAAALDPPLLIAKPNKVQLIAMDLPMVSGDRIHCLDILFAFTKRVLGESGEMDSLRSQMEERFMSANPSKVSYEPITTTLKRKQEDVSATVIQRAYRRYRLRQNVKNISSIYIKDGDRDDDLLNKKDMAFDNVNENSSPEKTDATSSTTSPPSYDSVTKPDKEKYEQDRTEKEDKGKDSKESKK

Row | Compound | IC50
1 | COc1cc(-c2cccc(C(F)(F)F)c2)c(C#N)cc1-c1nccc2cc(S(=O)(=O)Nc3ncccn3)ccc12 [Example 373, 1-(2-cyano-5-methoxy-3′-(trifluoromethyl)-[1,1′-biphenyl]-4-yl)-N-(pyrimidin-2-yl)isoquinoline-6-sulfonamide] | 57 nM

Same assay, conditions: HEK 293 cells stably transfected with human Nav1.7; PatchXpress; partially inactivated state

Row | IC50 | Compound
2 | 105 nM | COc1cc(-c2ccc(F)cc2F)c(C)cc1-c1ncnc2cc(S(=O)(=O)Nc3ccon3)ccc12 [Example 563, 4-(2′,4′-difluoro-5-methoxy-2-methyl-4-biphenylyl)-N-3-isoxazolyl-7-quinazolinesulfonamide]
3 | 298 nM | COc1cc(-c2cccc(Cl)c2)cc(F)c1-c1nccc2cc(S(=O)(=O)Nc3ccon3)ccc12 [Example 538, 1-(3′-chloro-3-fluoro-5-methoxy-4-biphenylyl)-N-3-isoxazolyl-6-isoquinolinesulfonamide]
4 | 533 nM | COc1cc(-c2cccc(F)c2)ccc1-c1c(=O)n(C)cc2cc(S(=O)(=O)Nc3ccon3)ccc12 [Example 589, 4-(3′-fluoro-3-methoxy-4-biphenylyl)-N-3-isoxazolyl-2-methyl-3-oxo-2,3-dihydro-7-isoquinolinesulfonamide]
5 | 29 nM | COc1cc(-c2cccc(C(F)(F)F)c2)c(F)cc1-c1c2ccc(S(=O)(=O)Nc3ccon3)cc2cc(=O)n1C [Example 546, 1-(2-fluoro-5-methoxy-3′-(trifluoromethyl)-4-biphenylyl)-N-3-isoxazolyl-2-methyl-3-oxo-2,3-dihydro-6-isoquinolinesulfonamide]
6 | 28400 nM | COc1cc(F)c(-c2ccccn2)cc1-c1nccc2cc(S(=O)(=O)Nc3ccon3)ccc12 [Example 399]
7 | 51 nM | COc1cc(-c2cc(C)cc(C)c2)c(F)cc1-c1ncnc2cc(S(=O)(=O)Nc3ccon3)ccc12 [Example 536, 4-(2-fluoro-5-methoxy-3′,5′-dimethyl-4-biphenylyl)-N-3-isoxazolyl-7-quinazolinesulfonamide]
8 | 41 nM | COc1cc(-c2cc(Cl)ccc2C)c(C)cc1-c1ncnc2cc(S(=O)(=O)Nc3ccon3)ccc12 [Example 558, 4-(5′-chloro-5-methoxy-2,2′-dimethyl-4-biphenylyl)-N-3-isoxazolyl-7-quinazolinesulfonamide]
9 | 77 nM | COc1cc(-c2cc(F)cc(Cl)c2)c(F)cc1-c1c[nH]c(=O)c2cc(S(=O)(=O)Nc3ccon3)ccc12 [Example 451, 4-(3′-CHLORO-2,5′-DIFLUORO-5-METHOXY-[1,1′-BIPHENYL]-4-YL)-N-(ISOXAZOL-3-YL)-1-OXO-1,2-DIHYDROISOQUINOLINE-7-SULFONAMIDE]
10 | 28 nM | COc1cc(-c2cccc(C(F)(F)F)c2)c(F)cc1-c1c2ccc(S(=O)(=O)Nc3ccon3)cc2cc(=O)n1C (atropisomer, axis not shown; (P)) [Example 551, (P)-1-(2-fluoro-5-methoxy-3′-(trifluoromethyl)-4-biphenylyl)-N-3-isoxazolyl-2-methyl-3-oxo-2,3-dihydro-6-isoquinolinesulfonamide]
11 | 28 nM | COc1cc(-c2cccc(F)c2)c(Cl)cc1-c1c(N)nnc2cc(S(=O)(=O)Nc3ccon3)ccc12 [Example 446, 3-AMINO-4-(2-CHLORO-3′-FLUORO-5-METHOXY-[1,1′-BIPHENYL]-4-YL)-N-(ISOXAZOL-3-YL)CINNOLINE-7-SULFONAMIDE]
12 | 28 nM | COc1cc(-c2cccc(Cl)c2)c(F)cc1-c1ncnc2cc(S(=O)(=O)Nc3ncon3)ccc12 [Example 376, 4-(3′-chloro-2-fluoro-5-methoxy-[1,1′-biphenyl]-4-yl)-N-(1,2,4-oxadiazol-3-yl)quinazoline-7-sulfonamide]
13 | 57 nM | COc1cc(-c2cc(OC)c(-c3ncnc4cc(S(=O)(=O)Nc5ccon5)ccc34)cc2C)ccc1F [Example 559, 4-(4′-fluoro-3′,5-dimethoxy-2-methyl-4-biphenylyl)-N-3-isoxazolyl-7-quinazolinesulfonamide]

Row | Compound | IC50
14 | COc1cc(-c2cccc(F)c2)c(Cl)cc1-c1c(O)cnc2cc(S(=O)(=O)Nc3ccon3)ccc12 (atropisomer, axis not shown; (P)) [Example 338, (P)-4-(2-chloro-3′-fluoro-5-methoxy-[1,1′-biphenyl]-4-yl)-3-hydroxy-N-(isoxazol-3-yl)quinoline-7-sulfonamide] | 41 nM
15 | COc1cc(-c2cccc(F)c2)c(Cl)cc1-c1ncnc2cc(S(=O)(=O)Nc3ccsn3)ccc12 [Example 361, 4-(2-chloro-3′-fluoro-5-methoxy-[1,1′-biphenyl]-4-yl)-N-(isothiazol-3-yl)quinazoline-7-sulfonamide] | 369 nM
16 | COc1cc(-c2cccc(F)c2)c(Cl)cc1-c1c(C)cnc2cc(S(=O)(=O)Nc3ccon3)ccc12 (atropisomer, axis not shown; (P)) [Example 331, (P)-4-(2-chloro-3′-fluoro-5-methoxy-[1,1′-biphenyl]-4-yl)-N-(isoxazol-3-yl)-3-methylquinoline-7-sulfonamide] | 10500 nM
17 | COc1cc(-c2cccc(F)c2)c(Cl)cc1-c1c(OC)cnc2cc(S(=O)(=O)Nc3ccon3)ccc12 (atropisomer, axis not shown; (M)) [Example 339, (M)-4-(2-chloro-3′-fluoro-5-methoxy-[1,1′-biphenyl]-4-yl)-N-(isoxazol-3-yl)-3-methoxyquinoline-7-sulfonamide] | 630 nM
18 | COc1cc(-c2cccc(F)c2)c(Cl)cc1-c1c(C)nnc2cc(S(=O)(=O)Nc3ccon3)ccc12 (atropisomer, axis not shown; (M)) [Example 441, (M)-4-(2-chloro-3′-fluoro-5-methoxy-[1,1′-biphenyl]-4-yl)-N-(isoxazol-3-yl)-3-methylcinnoline-7-sulfonamide] | 52 nM

Same assay, conditions: PatchXpress (PX)

Row | IC50 | Compound
19 | 169 nM | COc1cc(-c2cccc(C)c2)c(C)cc1-c1nccc2cc(S(=O)(=O)Nc3ccon3)ccc12 [Example 276, N-3-isoxazolyl-1-(5-methoxy-2,3′-dimethyl-4-biphenylyl)-6-isoquinolinesulfonamide]
20 | 32 nM | COc1cc(-c2ccc(Cl)c(C)c2)c(C)cc1-c1ncnc2cc(S(=O)(=O)Nc3ccon3)ccc12 [Example 252, 4-(4′-chloro-5-methoxy-2,3′-dimethyl-4-biphenylyl)-N-3-isoxazolyl-7-quinazolinesulfonamide]
21 | 38.1 nM | COc1cc(-c2ccc(F)c(C)c2)c(C)cc1-c1ncnc2cc(S(=O)(=O)Nc3ccon3)ccc12 [Example 261, 4-(4′-fluoro-5-methoxy-2,3′-dimethyl-4-biphenylyl)-N-3-isoxazolyl-7-quinazolinesulfonamide]
22 | 1090 nM | COc1cc(-c2cccc(F)c2)ccc1[C@@H]1c2ccc(S(=O)(=O)Nc3ccon3)cc2CCN1C(C)=O [Example 53-A, (S)-2-ACETYL-1-(3′-FLUORO-3-METHOXY-[1,1′-BIPHENYL]-4-YL)-N-(ISOXAZOL-3-YL)-1,2,3,4-TETRAHYDROISOQUINOLINE-6-SULFONAMIDE]
23 | 15.4 nM | COc1cc(-c2ccc(Cl)c(C)c2)c(Cl)cc1-c1nncc2cc(S(=O)(=O)Nc3ccon3)ccc12 [Example 245, 1-(2,4′-dichloro-5-methoxy-3′-methyl-4-biphenylyl)-N-3-isoxazolyl-6-phthalazinesulfonamide]
24 | 118 nM | COc1cc(-c2ccc(Cl)c(C)c2)c(C)cc1-c1nccc2cc(S(=O)(=O)Nc3ccon3)ccc12 [Example 253, 1-(4′-chloro-5-methoxy-2,3′-dimethyl-4-biphenylyl)-N-3-isoxazolyl-6-isoquinolinesulfonamide]
25 | 320 nM | COc1cc(-c2ccc(Cl)c(C)c2)c(Cl)cc1-c1nncc2cc(S(=O)(=O)Nc3ccsn3)ccc12 [Example 255, 1-(2,4′-dichloro-5-methoxy-3′-methyl-4-biphenylyl)-N-3-isothiazolyl-6-phthalazinesulfonamide]
26 | 493 nM | COc1cc(-c2cccc(F)c2)c(Cl)cc1-c1nccc2cc(S(=O)(=O)Nc3cscn3)ccc12 [Example 54, 1-(2-CHLORO-3′-FLUORO-5-METHOXY-[1,1′-BIPHENYL]-4-YL)-N-(THIAZOL-4-YL)ISOQUINOLINE-6-SULFONAMIDE]
27 | 73.3 nM | COc1cc(-c2cc(C)cc(F)c2)c(C)cc1-c1nccc2cc(S(=O)(=O)Nc3ccon3)ccc12 [Example 273, 1-(3′-fluoro-5-methoxy-2,5′-dimethyl-4-biphenylyl)-N-3-isoxazolyl-6-isoquinolinesulfonamide]
28 | 289 nM | COc1cc(-c2cccc(F)c2)c(Cl)cc1-c1nccc2cc(S(=O)(=O)Nc3ccsn3)ccc12 [Example 254, 1-(2-chloro-3′-fluoro-5-methoxy-4-biphenylyl)-N-3-isothiazolyl-6-isoquinolinesulfonamide]

Same assay, conditions: in-vitro Nav 1.7 PX (PatchXpress)

Row | IC50 | Compound
29 | 22 nM | COc1cc(-c2cc(F)cc(Cl)c2)c(F)cc1-c1ncnc2cc(S(=O)(=O)Nc3ccon3)ccc12 [Example 302, 4-(3′-chloro-2,5′-difluoro-5-methoxy-4-biphenylyl)-N-3-isoxazolyl-7-quinazolinesulfonamide]
30 | 63 nM | COc1cc(-c2cc(F)cnc2OC)c(C)cc1-c1nccc2cc(S(=O)(=O)Nc3ccon3)ccc12 [Example 279, 1-(4-(5-fluoro-2-methoxy-3-pyridinyl)-2-methoxy-5-methylphenyl)-N-3-isoxazolyl-6-isoquinolinesulfonamide]
31 | 113 nM | COc1cc(-c2cc(C)ccc2F)c(C)cc1-c1ncnc2cc(S(=O)(=O)Nc3ccon3)ccc12 [Example 307, 4-(2′-fluoro-5-methoxy-2,5′-dimethyl-4-biphenylyl)-N-3-isoxazolyl-7-quinazolinesulfonamide]
32 | 16.4 nM | COc1ccc(Cl)cc1-c1cc(OC)c(-c2nccc3cc(S(=O)(=O)Nc4ccon4)ccc23)cc1C [Example 281, 1-(5′-chloro-2′,5-dimethoxy-2-methyl-4-biphenylyl)-N-3-isoxazolyl-6-isoquinolinesulfonamide]
33 | 111 nM | COc1cc(-c2ccc(C)c(Cl)c2)ccc1-c1nccc2cc(S(=O)(=O)Nc3ccon3)ccc12 [Example 287, 1-(3′-chloro-3-methoxy-4′-methyl-4-biphenylyl)-N-3-isoxazolyl-6-isoquinolinesulfonamide]
34 | 45 nM | COc1cc(-c2cc(F)cc(Cl)c2)c(Cl)cc1-c1ncnc2cc(S(=O)(=O)Nc3ccon3)ccc12 [Example 310, 4-(2,3′-dichloro-5′-fluoro-5-methoxy-4-biphenylyl)-N-3-isoxazolyl-7-quinazolinesulfonamide]
